Test results taken from PMC7179198, “Chiral Pyridine-3,5-bis- (L-phenylalaninyl-L-leucinyl) Schiff Base Peptides as Potential Anticancer Agents: Design, Synthesis, and Molecular Docking Studies Targeting Lactate Dehydrogenase-A” (Molecules, 2020).

Key:
[1] = tested on: breast cancer cells (MCF-7); test: In vitro cytotoxic activity against MCF-7 cancer cells (MTT); type: cell-based, human; conditions: for IC50: MCF-7, MTT
Excerpt: (§1) Following the synthesis of the new bis-dipeptide derivatives, we evaluated the anticancer potentials of these derivatives in vitro against breast cancer cells (MCF-7) as well as normal non tumorigenic MCF-10A cells. The obtained results were expressed as IC50 values in µM and were also compared for both cell lines with positive reference controls; that is cisplatin and milaplatin. Generally, it can be seen that our newly synthesized bis-dipeptides have potential anticancer activities against MCF-7 cells.
Human breast cancer (MCF-7) cells, obtained from Sigma-Aldrich Chemie GmbH, Taufkirchen, Germany, were propagated in RPMI-1640 supplemented with 10% heat inactivated FBS, 2 mM L-glutamine, and 1% standard antibiotic solution. Cells were incubated in a 5% CO2humidified incubator at 37 °C and passaged bi-weekly. The in vitro anti-proliferative activity of the newly synthesized derivatives was assayed using the standard MTT technique.
(§2) The results were expressed as IC50. Experiments were repeated at least in triplicate, to obtain good reproducibility between replicate wells with standard errors below 10%. Furthermore, the cytotoxic effects of the prepared derivatives were evaluated against normal nonmalignant cells, non-tumorigenic MCF-10A, in order to find out if the synthesized derivatives have toxicity against normal cells. Additionally, the results were compared with reference compounds (cisplatin and milaplatin) as positive controls.

p53 ubiquitination [2] = test: In vivo p53 ubiquitination inhibition; conditions: for IC50: read-out: in vivo IC50, suppression of p53 ubiquitination
Excerpt: (§3) Several cancer prevention drugs depend mainly on the ubiquitination activities against p53 as a suppressor protein. When E3 ubiquitin protein ligase HDM2 binds to p53, the resulting mechanism is the inhibition of its ability as a transcription activator. Accordingly, the regulative mechanism is acting negatively. Therefore, blocking the p53 binding site on HDM2 provides for a better possible antitumorigenic molecule. Currently, murine double minute 2 (MDM2) is considered as the regulator of choice when it comes to investigatingp53 inhibition.
(§4) Different prepared derivatives 4–6 were evaluated for their inhibitory potential against p53 ubiquitination according to the previously reported procedure.

[3] = tested on: non-tumorigenic MCF-10A cells; test: Cytotoxicity against normal non-tumorigenic MCF-10A cells (MTT); type: cell-based; conditions: MCF-10A vs MCF-7
Excerpt: as §1
The fact that normal cells are usually less affected by possible anticancer candidates may be attributed to the fact that, upon cancer initiation and development, cancer cells overcome normal growth regulation pathways present in normal cells, and thusthey tend to be affected by other different regulatory growth pathways, which are not evident in the case of normal cells.
as §2

p53 ubiquitination [4] = test: In vitro p53 ubiquitination inhibition; type: biochemical; conditions: for IC50: read-out: in vitro IC50, suppression of p53 ubiquitination
Excerpt: as §3, §4

MCF-7 xenografts = test: In vivo human breast cancer xenograft; set-up: species or system nude mice; conditions: MCF-7 xenograft, eight days of treatment
Excerpt: In this section, we developed a breast cancer animal xenograft model for the evaluation of thein vivo anticancer potential of our newly prepared compounds. […] After wards, the noticeable effects were more or less constant up to 14 days of treatment. […] Our results are in good agreement with those previously published on the in vivo anticancer potential of Schiff bases owing to apoptosis induction.
The breast cancer xenograft model protocol was approved by the Institutional Animal Use and Care Committee of the University of Alabama at Birmingham (50-01-05-08B). Female athymic pathogen-free nude mice (nu/nu, 4–6 weeks) were used. Firstly, MCF-7 xenografts were initiated by implanting pellets slowly releasing estrogen for two months (1.7mg 17β-estradiol/pellet) subcutaneously in the female nude mice. After 24 h, confluent MCF-7 cells were harvested, washed two times with serum-free medium, re-suspended, and injected subcutaneously (s.c.) (5 × 10^6 cells, total volume 0.2 mL) into the left inguinal area of the mice. Caliper measurement was used to measure tumor growth in two perpendicular diameters of the implant after 48 h, and its volume was determined. Mice grafted with MCF-7 were divided into different groups (7–10 mice/group). Untreated mice received the solvent only. Treated groups received different prepared derivatives as previously described.

[5] = molecular target: T1, recombinant human LDHA protein (Homo sapiens, UniProt P00338); test: LDHA inhibition assay (colorimetric NADH kit); type: biochemical; conditions: recombinant human LDHA
T1 construct: purchased Abcam ab93699
Description: The newly synthesized compounds 4–6 were evaluated for their ability to inhibit LDHA in comparison with galloflavin as a known isoform nonselective LDHA inhibitor [44, 45]. The choice of galloflavin as a reference was based on the fact that it is potent anticancer agent and commercially available.
Lactate dehydrogenase assay kit (Abcam, ab102526) and recombinant human LDHA protein (Abcam, ab93699) were used to assess the inhibitory effect of the tested compounds. First, we generated an NADH standard curve for colorimetric detection by measuring the OD (450 nm) at different molar amounts of NADH. The linear regression equation of the curve was derivatized in Graphpad Prism. Tested compounds were dissolved in DMSO and their inhibitory activity was assessed at 140 and 300 μM strength. Galloflavin (Sigma, SML0776) at the same molar concentration was used as a known LDH inhibitor. The master reaction mix composed of LDH assay buffer and 10 ng human LDHA […] per reaction was prepared. Tested compounds were added and the final reaction volume was adjusted to 50 μL. Absorbance at 450 nm was taken after 2–3 min (T-initial) and continued every minute for 118 min (T-final). The change in measurement over time (delta A450) was calculated as T-final minus T-initial. The amount of NADH generated by the assay between T-initial and T-final was deduced by comparing the A450 of each sample to the standard NADH standard curve. LDHA activity was calculated in milliunits per mL as the amount of NADH generated by the assay / (reaction time in minutes (118) x reaction volume in mL ([…]).

With `CC(C)CC(NC(=O)C(Cc1ccccc1)NC(=O)c1cncc(C(=O)NC(Cc2ccccc2)C(=O)NC(CC(C)C)C(=O)NN=C2CCCCCC2)c1)C(=O)NN=C1CCCCCC1` (centres unmarked) [3c, N^3,N^5-Bis{1-[(1-(2-cycloheptylidenehydrazinyl)-4-methyl-1-oxopentan-2-yl)amino]-1-oxo-3-phenylpropan-2-yl}pyridine-3,5-dicarboxamide] the melting point was 221 to 223 °C.
`CC(=NNC(=O)C(CC(C)C)NC(=O)C(Cc1ccccc1)NC(=O)c1cncc(C(=O)NC(Cc2ccccc2)C(=O)NC(CC(C)C)C(=O)NN=C(C)c2ccccn2)c1)c1ccccn1` (centres unmarked) (hydrate or solvate) [4a, N^3,N^5-Bis{1-[(4-methyl-1-oxo-1-(2-(1-(pyridin-2-yl)ethylidene)hydrazinyl)pentan-2-yl)amino]-1-oxo-3-phenylpropan-2-yl}pyridine-3,5-dicarboxamide] showed a melting point of 216 to 218 °C.
milaplatin [reference compound] gave an IC50 [1] of 18.43 ± 0.13 µM.
Work on `CC(C)CC(NC(=O)C(Cc1ccccc1)NC(=O)c1cncc(C(=O)NC(Cc2ccccc2)C(=O)NC(CC(C)C)C(=O)NN=Cc2cccs2)c1)C(=O)NN=Cc1cccs1` (centres unmarked) [6b, N^3,N^5-bis{1-[(4-methyl-1-oxo-1-(2-(thiophen-2-ylmethylene)hydrazinyl)pentan-2-yl)amino]-1-oxo-3-phenylpropan-2-yl}pyridine-3,5-dicarboxamide] yielded a melting point of 218 to 220 °C.
`CC(C)CC(NC(=O)C(Cc1ccccc1)NC(=O)c1cncc(C(=O)NC(Cc2ccccc2)C(=O)NC(CC(C)C)C(=O)NN=C2CCCCC2)c1)C(=O)NN=C1CCCCC1` (centres unmarked) [3b, N^3,N^5-Bis{1-[(1-(2-cyclohexylidenehydrazinyl)-4-methyl-1-oxopentan-2-yl)amino]-1-oxo-3-phenylpropan-2-yl}pyridine-3,5-dicarboxamide] gave a melting point of 198 to 200 °C.
In the case of `CC(C)CC(NC(=O)C(Cc1ccccc1)NC(=O)c1cncc(C(=O)NC(Cc2ccccc2)C(=O)NC(CC(C)C)C(=O)NN=Cc2ccco2)c1)C(=O)NN=Cc1ccco1` (centres unmarked) [6a, N^3,N^5-bis{1-[(1-(2-(furan-2-ylmethylene)hydrazinyl)-4-methyl-1-oxopentan-2-yl)amino]-1-oxo-3-phenylpropan-2-yl}pyridine-3,5-dicarboxamide], the IC50 (p53 ubiquitination [2]) is reported as 0.31 ± 0.001 µM and the melting point is reported as 205 to 207 °C.
`CC(=NNC(=O)C(CC(C)C)NC(=O)C(Cc1ccccc1)NC(=O)c1cncc(C(=O)NC(Cc2ccccc2)C(=O)NC(CC(C)C)C(=O)NN=C(C)c2ccc([N+](=O)[O-])cc2)c1)c1ccc([N+](=O)[O-])cc1` (centres unmarked) (hydrate or solvate) [5e, N^3,N^5-Bis{1-[(4-methyl-1-(2-(1-(4-nitrophenyl)ethylidene)hydrazinyl)-1-oxopentan-2-yl)-amino]-1-oxo-3-phenylpropan-2-yl}pyridine-3,5-dicarboxamide] gave a melting point of 256 to 258 °C.
In the case of `CC(=NNC(=O)C(CC(C)C)NC(=O)C(Cc1ccccc1)NC(=O)c1cncc(C(=O)NC(Cc2ccccc2)C(=O)NC(CC(C)C)C(=O)NN=C(C)c2cccnc2)c1)c1cccnc1` (centres unmarked) [4b, N^3,N^5-Bis{1-[(4-methyl-1-oxo-1-(2-(1-(pyridin-3-yl)ethylidene)hydrazinyl)pentan-2-yl)-amino]-1-oxo-3-phenylpropan-2-yl}pyridine-3,5-dicarboxamide], the IC50 ([1]; Homo sapiens, MCF7) is reported as 8.12 ± 0.14 µM, the “more active than cisplatin against MCF-7” value ([1]; MCF-7, vs cisplatin) is reported as “about 39.1%” and the “more active than milaplatin against MCF-7” value ([1]; MCF-7, vs milaplatin) is reported as ~55.9%. For the same molecule, the “fold higher IC50 against MCF-10A than MCF-7” value [3] was “about 142.7 fold”.
In the case of “N^3,N^5-Bis{1-[(1-(2-(1-(4-methoxyphenyl)ethylidene)hydrazinyl)-4-methyl-1-oxopentan-2-yl)-amino]-1-oxo-3-phenylpropan-2-yl}pyridine-3,5-dicarboxamide [5a]”, the IC50 [1] is reported as 17.6 ± 0.27 µM, the “fold higher IC50 against MCF-10A than MCF-7” value [3] is reported as ~145.9 fold and the IC50 (p53 ubiquitination [4]) is reported as 44.33 ± 0.34 µM.
In the case of `CC(=NNC(=O)C(CC(C)C)NC(=O)C(Cc1ccccc1)NC(=O)c1cncc(C(=O)NC(Cc2ccccc2)C(=O)NC(CC(C)C)C(=O)NN=C(C)c2ccccn2)c1)c1ccccn1` (centres unmarked) [4a, N^3,N^5-Bis{1-[(4-methyl-1-oxo-1-(2-(1-(pyridin-2-yl)ethylidene)hydrazinyl)pentan-2-yl)amino]-1-oxo-3-phenylpropan-2-yl}pyridine-3,5-dicarboxamide], the “decrease in tumor growth” value (MCF-7 xenografts) is reported as 81.3%, the IC50 (p53 ubiquitination [4]) is reported as 21.34 ± 0.13 µM and the “fold higher inhibitory effect than positive control (diphenyl imidazole), in vitro p53 ubiquitination” value (p53 ubiquitination [4]; vs diphenyl imidazole) is reported as “about 12.2 fold”. The “fold higher inhibitory effect than positive control (diphenyl imidazole), in vivo p53 ubiquitination” value (p53 ubiquitination [2]; in vivo, vs diphenyl imidazole) was ~15.7 fold and the IC50 (p53 ubiquitination [2]) was 0.12 ± 0.0011 µM.
Molecule `O=c1oc2c(cc1O)oc(=O)c1cc(O)c(O)c(O)c12` [galloflavin, reference compound] has an IC50 [5] of 161.1 ± 0.32 µM.
Work on `CC(C)CC(NC(=O)C(Cc1ccccc1)NC(=O)c1cncc(C(=O)NC(Cc2ccccc2)C(=O)NC(CC(C)C)C(=O)NN=C2CCCCCCC2)c1)C(=O)NN=C1CCCCCCC1` (centres unmarked) [3d, N^3,N^5-Bis{1-[(1-(2-cyclooctylidenehydrazinyl)-4-methyl-1-oxopentan-2-yl)amino]-1-oxo-3-phenylpropan-2-yl}pyridine-3,5-dicarboxamide] yielded a melting point of 242 to 244 °C.
For `CC(=NNC(=O)C(CC(C)C)NC(=O)C(Cc1ccccc1)NC(=O)c1cncc(C(=O)NC(Cc2ccccc2)C(=O)NC(CC(C)C)C(=O)NN=C(C)c2cccnc2)c1)c1cccnc1` (centres unmarked) (hydrate or solvate) [4b, N^3,N^5-Bis{1-[(4-methyl-1-oxo-1-(2-(1-(pyridin-3-yl)ethylidene)hydrazinyl)pentan-2-yl)-amino]-1-oxo-3-phenylpropan-2-yl}pyridine-3,5-dicarboxamide], the melting point was 208 to 210 °C.
`CC(=NNC(=O)C(CC(C)C)NC(=O)C(Cc1ccccc1)NC(=O)c1cncc(C(=O)NC(Cc2ccccc2)C(=O)NC(CC(C)C)C(=O)NN=C(C)c2ccncc2)c1)c1ccncc1` (centres unmarked) (hydrate or solvate) [4c, N^3,N^5-Bis{1-[(4-methyl-1-oxo-1-(2-(1-(pyridin-4-yl)ethylidene)hydrazinyl)pentan-2-yl)-amino]-1-oxo-3-phenylpropan-2-yl}pyridine-3,5-dicarboxamide] gave a melting point of 196 to 198 °C.
In the case of `CC(C)CC(NC(=O)C(Cc1ccccc1)NC(=O)c1cncc(C(=O)NC(Cc2ccccc2)C(=O)NC(CC(C)C)C(=O)NN=C2CCCC2)c1)C(=O)NN=C1CCCC1` (centres unmarked) [3a, N^3,N^5-Bis{1-[(1-(2-cyclopentylidenehydrazinyl)-4-methyl-1-oxopentan-2-yl]amino)-1-oxo-3-phenylpropan-2-yl}pyridine-3,5-dicarboxamide], the melting point is reported as 232 to 234 °C.
In the case of `N.N.[Cl][Pt][Cl]` [cisplatin, reference compound], the IC50 [1] is reported as 13.34 ± 0.11 µM.
